As usually defined, the IC50 is the concentration at which inhibition is half-maximal. As usually defined, the Ki is a dissociation constant, usually derived from enzyme kinetics or from competition with a known ligand. A low value points to higher affinity.

Sequence of BTK wildtype protein (Q06187 2-659): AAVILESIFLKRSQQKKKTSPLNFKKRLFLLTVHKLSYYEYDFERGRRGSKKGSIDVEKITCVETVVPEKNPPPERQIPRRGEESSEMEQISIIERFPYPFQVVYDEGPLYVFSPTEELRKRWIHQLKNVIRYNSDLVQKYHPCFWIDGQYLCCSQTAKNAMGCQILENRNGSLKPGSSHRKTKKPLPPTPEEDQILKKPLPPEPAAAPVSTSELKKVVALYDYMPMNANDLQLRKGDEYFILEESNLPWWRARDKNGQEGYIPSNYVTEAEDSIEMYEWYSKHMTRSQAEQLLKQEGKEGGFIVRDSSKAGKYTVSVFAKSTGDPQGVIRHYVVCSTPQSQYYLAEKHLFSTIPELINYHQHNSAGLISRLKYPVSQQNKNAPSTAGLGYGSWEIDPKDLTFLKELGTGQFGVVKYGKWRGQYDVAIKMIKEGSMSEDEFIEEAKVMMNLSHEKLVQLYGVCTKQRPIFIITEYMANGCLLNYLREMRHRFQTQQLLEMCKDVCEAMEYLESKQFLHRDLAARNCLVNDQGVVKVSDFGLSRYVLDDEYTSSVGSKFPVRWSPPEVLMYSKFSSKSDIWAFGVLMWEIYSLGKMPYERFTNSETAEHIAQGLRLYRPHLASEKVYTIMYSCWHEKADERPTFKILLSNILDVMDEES
Sequence of BTK C481S protein (Q06187 2-659 C481S): as the sequence (Q06187 2-659) above, with C480S counted along it

One assay has as its target BTK C481S protein (Homo sapiens (Human), UniProt Q06187, C481S). The assay can be described thus: BTK C481S HTRF displacement assay. Type of assay: binding. As to conditions: 1-hour incubation. Here is the method: (§1) The ability of a compound to bind BTK wildtype or BTK C481S proteins was measured using an HTRF displacement assay. The assay measures the ability of a compound to displace a tracer ligand bound to the active site of BTK wildtype or BTK C481 S proteins.
(§2) Test compounds were prepared as 10 mM stock solutions in DMSO (Fisher cat #BP231-100). Compounds to be assayed were dispensed using an Echo 650 acoustic dispenser (Beckman Coulter) on a 384 well plate in 6 doses applying four-fold dilutions from the highest concentration of 5 μM. N-terminal GST-tagged recombinant full-length BTK wildtype protein and BTK C481 S protein 2-659 were purchased from Carna Biosciences, Inc (Kobe, Japan). BTK wildtype or BTK C481S protein was separately incubated with compound in assay buffer containing kinase tracer 239 (Thermo Fisher) and Mab anti GST-Th (PerkinElmer). After a 1-hour incubation at room temperature, the HTRF signal was measured using SPARK plate reader (Tecan) using the TR fluorescence mode. The HTRF ratio is calculated for DMSO, no protein control and compound samples using the following equation: HTRF ratio=Emmision665/Emmision620×10^4. The signal for the no protein control samples was used to subtract background noise from the DMSO and compound samples. Background subtracted HTRF ratios are used to calculate the percent inhibition, where DMSO controls are set to 0 percent inhibition. The percent inhibition is plotted as a function of compound concentration and IC50 values were calculated from a four-parameter logistic fit in Prism v9.4 (GraphPad), where the bottom and top are constrained to 0 and 100, respectively.
The same assay was used to measure the activity of selected compounds of the formula TBM-L-hydrogen. Using the IC50 value observed for a given reversible test compound, the KI of the test compound can be assessed using the formula KI=IC50/(1+([Tracer]/Kd)), wherein the tracer concentration in the assay [Tracer] is 50 nM and the tracer Kd for BTK C481S is 54 nM.
Consider `CN(C(=O)n1cncn1)C1CCC(n2nc(-c3ccc(Oc4ccccc4)cc3)c3c(N)ncnc32)C1` (stereo not drawn) [Compound 116, N-(3-(4-amino-3-(4-phenoxyphenyl)-1H-pyrazolo[3,4-d]pyrimidin-1-yl)cyclopentyl)-N-methyl-1H-1,2,4-triazole-1-carboxamide], for which the IC50 was at most 1 µM.
The compound `CN(C(=O)n1cncn1)C1CCCCC(n2nc(-c3ccc(Oc4ccccc4)cc3)c3c(N)ncnc32)C1` (stereo not drawn) [Compound 118, N-(3-(4-amino-3-(4-phenoxyphenyl)-1H-pyrazolo[3,4-d]pyrimidin-1-yl)cycloheptyl)-N-methyl-1H-1,2,4-triazole-1-carboxamide] had an IC50 of at most 1 µM.
Turning to `COc1ccc(F)cc1C(=O)NCc1ccc(-c2nn(C3CCCCC(N(C)C(=O)n4cncn4)C3)c3ncnc(N)c23)cc1` (stereo not drawn) [Compound 147, N-(3-(4-amino-3-(4-((5-fluoro-2-methoxybenzamido)methyl)phenyl)-1H-pyrazolo[3,4-d]pyrimidin-1-yl)cycloheptyl)-N-methyl-1H-1,2,4-triazole-1-carboxamide], the 50% inhibitory concentration (IC50) is at most 1 µM.
`CN(C(=O)n1cncn1)C1CCCC(n2nc(-c3ccc(Oc4ccccc4)cc3)c3c(N)ncnc32)C1` (stereo not drawn) [Compound 160, N-(3-(4-amino-3-(4-phenoxyphenyl)-1H-pyrazolo[3,4-d]pyrimidin-1-yl)cyclohexyl)-N-methyl-1H-1,2,4-triazole-1-carboxamide] returned a half-inhibitory concentration (IC50) of at most 1 µM.
In turn, `COc1ccc(F)cc1C(=O)NCc1ccc(-c2nn(C(C)CC3CCCN3C(=O)n3cncn3)c3ncnc(N)c23)cc1` (stereo not drawn) [Compound 166, N-(4-(1-(1-(1-(1H-1,2,4-triazole-1-carbonyl)pyrrolidin-2-yl)propan-2-yl)-4-amino-1H-pyrazolo[3,4-d]pyrimidin-3-yl)benzyl)-5-fluoro-2-methoxybenzamide] had a concentration for half-maximal inhibition (IC50) of at most 1 µM.
`COc1ccc(F)cc1C(=O)NCc1ccc(-c2nn(C3CCCC(N(C)C(=O)n4cncn4)C3)c3ncnc(N)c23)cc1` (stereo not drawn) [Compound 177, N-(3-(4-amino-3-(4-((5-fluoro-2-methoxybenzamido)methyl)phenyl)-1H-pyrazolo[3,4-d]pyrimidin-1-yl)cyclohexyl)-N-methyl-1H-1,2,4-triazole-1-carboxamide]: the IC50 was at most 1 µM.
Same read-out and setting: to `NC(=O)c1c(-c2ccc(Oc3ccccc3)cc2)nn2c1NCCC2C1CCN1C(=O)n1cncn1` (stereo not drawn) [Compound 180, 7-(1-(1H-1,2,4-triazole-1-carbonyl)azetidin-2-yl)-2-(4-phenoxy-phenyl)-4,5,6,7-tetrahydropyrazolo [1,5-a]pyrimidine-3-carboxamide] belongs above 1 µM; to `COc1ccc(F)cc1C(=O)NCc1ccc(-c2nn(C(C)C(C)CN(C)C(=O)n3cncn3)c3ncnc(N)c23)cc1` (stereo not drawn) [Compound 189, N-(3-(4-amino-3-(4-((5-fluoro-2-methoxybenzamido)methyl)phenyl)-1H-pyrazolo[3,4-d]pyrimidin-1-yl)-2-methylbutyl)-N-methyl-1H-1,2,4-triazole-1-carboxamide], at most 1 µM; to `CN(C(=O)n1cncn1)C1CCC(n2nc(-c3ccc(Oc4ccccc4)cc3)c(C(N)=O)c2N)C1` (stereo not drawn) [Compound 302, N-(3-(5-amino-4-carbamoyl-3-(4-phenoxyphenyl)-1H-pyrazol-1-yl)cyclopentyl)-N-methyl-1H-1,2,4-triazole-1-carboxamide], at most 1 µM.

Still in this assay, the particulars now being: TBM-L-hydrogen compounds; KI=IC50/(1+([Tracer]/Kd)), [Tracer] 50 nM, Kd 54 nM.
For `COc1ccc(F)cc1C(=O)NCc1ccc(-c2nn(CCNC3CC3)c3ncnc(N)c23)cc1` [reference compound], the Ki is below 0.66 µM.
In the case of `CCNCC1CCNc2c(C(N)=O)c(-c3ccc(Oc4ccccc4)cc3)nn21` (stereo not drawn) [reference compound], the Ki was below 1 µM.
On the same count and under the same terms, to `COc1ccc(C)cc1C(=O)NCc1ccc(-c2nn(CC3CCCCN3)c3ncnc(N)c23)cc1` (stereo not drawn) [reference compound] belongs below 0.6 µM.

A further assay has as its target BTK wildtype protein (Homo sapiens (Human), UniProt Q06187). Description: BTK wildtype HTRF displacement assay. The assay is classed as binding. As to conditions: 1-hour incubation; read-out: BTK (wt) IC50. The protocol:
as §1, §2
(In TR-FRET formats the signal depends on donor and acceptor labels being close together.)
Turning to `COc1ccc(F)cc1C(=O)NCc1ccc(-c2nn(C3CCC(N(C)C(=O)n4cncn4)C3)c(N)c2C(N)=O)cc1` (stereo not drawn) [Compound 201, N-(3-(5-amino-4-carbamoyl-3-(4-((5-fluoro-2-methoxybenzamido)methyl)phenyl)-1H-pyrazol-1-yl)cyclopentyl)-N-methyl-1H-1,2,4-triazole-1-carboxamide], the half-inhibitory concentration (IC50) is at most 1 µM.
Take `CN(C(=O)n1cncn1)C1CCC(n2nc(-c3ccc(Oc4ccccc4)cc3)c3c(N)ncnc32)C1` (stereo not drawn) [Compound 216, N-(3-(4-amino-3-(4-phenoxyphenyl)-1H-pyrazolo[3,4-d]pyrimidin-1-yl)cyclopentyl)-N-methyl-1H-1,2,4-triazole-1-carboxamide]: the IC50 is at most 1 µM.
Same read-out and setting: to `CN(C(=O)n1cncn1)C1CCCC(n2nc(-c3ccc(Oc4ccccc4)cc3)c3c(N)ncnc32)C1` (stereo not drawn) [Compound 233, N-(3-(4-amino-3-(4-phenoxyphenyl)-1H-pyrazolo[3,4-d]pyrimidin-1-yl)cyclohexyl)-N-methyl-1H-1,2,4-triazole-1-carboxamide] belongs at most 1 µM; to `COc1ccc(F)cc1C(=O)NCc1ccc(-c2nn(C3CCCC4(CCN4C(=O)n4cncn4)C3)c3ncnc(N)c23)cc1` (stereo not drawn) [Compound 236, N-(4-(1-(1-(1H-1,2,4-triazole-1-carbonyl)-1-azaspiro[3.5]nonan-6-yl)-4-amino-1H-pyrazolo[3,4-d]pyrimidin-3-yl)benzyl)-5-fluoro-2-methoxybenzamide], at most 1 µM.
`COc1ccc(F)cc1C(=O)NCc1ccc(-c2nn(C3CCCCC(N(C)C(=O)n4cncn4)C3)c3ncnc(N)c23)cc1` (stereo not drawn) [Compound 278, N-(3-(4-amino-3-(4-((5-fluoro-2-methoxybenzamido)methyl)phenyl)-1H-pyrazolo[3,4-d]pyrimidin-1-yl)cycloheptyl)-N-methyl-1H-1,2,4-triazole-1-carboxamide]: the IC50 was at most 1 µM.
The same measure, in the same setting: to `NC(=O)c1c(-c2ccc(Oc3ccccc3)cc2)nn2c1NCCC2C1CCCN(C(=O)n2cncn2)C1` (stereo not drawn) [Compound 283, 7-(1-(1H-1,2,4-triazole-1-carbonyl)piperidin-3-yl)-2-(4-phenoxyphenyl)-4,5,6,7-tetrahydropyrazolo[1,5-a] pyrimidine-3-carboxamide] belongs above 1 µM; to `COc1ccc(F)cc1C(=O)NCc1ccc(-c2nn(C3CCCC(N(C)C(=O)n4cncn4)C3)c3ncnc(N)c23)cc1` (stereo not drawn) [Compound 290, N-(3-(4-amino-3-(4-((5-fluoro-2-methoxybenzamido)methyl)phenyl)-1H-pyrazolo[3,4-d]pyrimidin-1-yl)cyclohexyl)-N-methyl-1H-1,2,4-triazole-1-carboxamide], at most 1 µM.
Same read-out and setting: to `CN(C(=O)n1cncn1)C1CCC(n2nc(-c3ccc(Oc4ccccc4)cc3)c(C(N)=O)c2N)C1` (stereo not drawn) [Compound 295, N-(3-(5-amino-4-carbamoyl-3-(4-phenoxyphenyl)-1H-pyrazol-1-yl)cyclopentyl)-N-methyl-1H-1,2,4-triazole-1-carboxamide] belongs at most 1 µM; to `CN(C(=O)n1cncn1)C1CCCCC(n2nc(-c3ccc(Oc4ccccc4)cc3)c3c(N)ncnc32)C1` (stereo not drawn) [Compound 314, N-(3-(4-amino-3-(4-phenoxyphenyl)-1H-pyrazolo[3,4-d]pyrimidin-1-yl)cycloheptyl)-N-methyl-1H-1,2,4-triazole-1-carboxamide], at most 1 µM.
